Reference: patent US20110172230A1, “UREA COMPOUND OR SALT THEREOF” (priority 2006, published 2011)
Counter-ions that a name gives are not always drawn.

target: T1, FAAH (Homo sapiens, UniProt O00519); test: Screening for an FAAH activity-inhibiting substance with human bladder epithelial cancer-derived cell line 5637 cells (IC50); assay type: cell-based; conditions: FAAH activity in human bladder epithelial cancer-derived 5637 cells, 37° C., 30 minutes
T1 construct: host or cells: 5637 human bladder epithelial cancer-derived cells, not transfected
T1 sequence (O00519 1-579): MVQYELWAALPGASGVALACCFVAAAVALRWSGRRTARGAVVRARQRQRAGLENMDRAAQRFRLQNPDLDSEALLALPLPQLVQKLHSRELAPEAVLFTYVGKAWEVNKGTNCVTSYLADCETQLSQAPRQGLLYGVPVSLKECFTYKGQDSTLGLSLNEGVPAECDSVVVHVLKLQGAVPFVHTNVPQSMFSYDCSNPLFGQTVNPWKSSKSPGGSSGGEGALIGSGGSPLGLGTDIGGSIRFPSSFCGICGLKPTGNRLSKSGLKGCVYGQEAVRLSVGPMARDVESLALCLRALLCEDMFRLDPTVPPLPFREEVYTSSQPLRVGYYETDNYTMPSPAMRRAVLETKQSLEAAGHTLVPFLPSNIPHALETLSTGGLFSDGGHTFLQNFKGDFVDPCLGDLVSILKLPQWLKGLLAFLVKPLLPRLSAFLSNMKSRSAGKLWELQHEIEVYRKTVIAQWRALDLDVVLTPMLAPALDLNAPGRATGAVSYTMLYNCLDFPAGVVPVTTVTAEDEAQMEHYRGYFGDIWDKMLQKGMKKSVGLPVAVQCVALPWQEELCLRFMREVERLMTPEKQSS
Experimental: Screening for an FAAH Activity-Inhibiting Substance with a Human Bladder Epithelial Cancer-Derived Cell
(1) Screening for an FAAH Activity Inhibiting Substance
Human bladder epithelial cancer-derived cell line 5637 cells (HTB-9; ATCC) were seeded on a 48-well cell culture plate in an amount of 1×10^5 cell/well, using 10% fetal bovine serum (HyClone)-containing RPMI1640 medium (Invitrogen Corporation). After incubated at 37° C. for 12 hours or longer, the cells were washed with 400 μl/well of a buffer (Hank's Balanced Salt Solution, 20 mM Hepes-NaOH (pH 7.4)). A test substance dissolved in DMSO was added to a substrate solution (the above buffer containing 3 μCi/ml radiolabeled anandamide (Anandamide [ethanolamine 1-^3H]) and 10 μM anandamide) so as to have a concentration from 0.003 nM to 30 nM. As a control, DMSO alone was added. 100 μl/well of the substrate solution was added to the above cells, and incubated in a CO2 incubator at 37° C. for 30 minutes. Next, the cell culture plate was transferred onto ice, and the substrate solution was removed by suction; and 75 μl/well of a cytolytic solution (the above buffer containing 0.5% Triton X-100, and 10 μM of FAAH-inhibitory activity-having compound, 3′-carbamoylbiphenyl-3-yl ester (URB597; Cayman chemical; Kathuria et al., Nature Med., Vol. 9, pp. 76-81, 2003)) was added thereto, followed by stirring. The resulting cell lysate in every well was individually transferred into a 1.5 ml sample tube, to which was added 150 μl of 1:1 (ratio by volume) chloroform/methanol solution, followed by vortexing. This was centrifuged (15000 rpm, 2 minutes), whereby the decomposed product, ethanolamine (ethanolamine 1-^3H) was separated in the upper layer (water/methanol layer) and the unreacted radiolabeled anandamide was in the lower layer (chloroform layer). 25 μl of the upper layer was transferred into a 96-well organic solvent-resistant white microplate (PicoPlate-96; Perkin Elmer, Inc.), 150 μl of Microscint-20 (Perkin Elmer, Inc.) was added thereto, and this was measured with a microplate scintillation counter (TopCount™; Beckman Coulter, Inc.). As compared with the control, the substance that gave a decreased value was selected as an FAAH activity-inhibiting substance.
(2) Measurement of the IC50 Value of the FAAH Activity Inhibiting Substance
The compound dissolved in DMSO to have a concentration of 10 mM was dissolved in the substrate solution so as to have a varying concentration from 0.003 nM to 30 nM. According to the method mentioned above, the compound was analyzed for its influence on FAAH activity. As a negative control, DMSO was used. As a positive control, URB597 was added to the substrate solution to have a concentration of 10 μM. Based on the measured value of the positive control, 0%, and on the measured value of the negative control, 100%, the IC50 value of the test substance was obtained. Furthermore, Ex represents Example No. as denoted below.

SMILES | IC50 [nM]
O=C(Nc1cnccn1)N1CCN(C(=O)c2ccnc(OCCC3CCCCC3)c2)CC1 [Example 38, 4-[2-(2-cyclohexylethoxy)isonicotinoyl]-N-pyrazin-2-ylpiperazine-1-carboxamide] | 0.7
O=C(Nc1ncccn1)N1CCN(C(=O)c2cccc(OCCC3CCCCC3)c2)CC1 [Example 155] | 0.54
COCC(=O)NC(=O)N1CCN(Cc2cccc(OCCC3CCCCC3)c2)CC1 [Example 439] | 0.43

These reach a lower IC50. Values come first.

IC50 [nM] | SMILES
0.28 | O=C(Nc1cccnc1)N1CCN(Cc2ccnc(OCCC3CCCCC3)c2)CC1 [Example 30, 4-{[2-(2-cyclohexylethoxy)pyridin-4-yl]methyl}-N-pyridin-3-ylpiperazine-1-carboxamide trihydrochloride]
0.16 | O=C(Nc1cnccn1)N1CCN(C(=O)c2cccc(OCCC3CCCCC3)c2)CC1 [Example 210]
0.18 | CN(CCC1CCCCC1)c1ccc(C(=O)N2CCN(C(=O)Nc3cccnc3)CC2)cc1 [Example 334]
